Key:
Assay type in all cases: biochemical
Itk = target: T1, Itk (Homo sapiens, UniProt Q08881); assay: Kinase inhibition assay (33P transfer), Itk; conditions: for IC50: read-out: Itk-1
T1 construct: Kinases are expressed as either kinase domains or full length constructs; made in house
T1 sequence (Q08881 1-620): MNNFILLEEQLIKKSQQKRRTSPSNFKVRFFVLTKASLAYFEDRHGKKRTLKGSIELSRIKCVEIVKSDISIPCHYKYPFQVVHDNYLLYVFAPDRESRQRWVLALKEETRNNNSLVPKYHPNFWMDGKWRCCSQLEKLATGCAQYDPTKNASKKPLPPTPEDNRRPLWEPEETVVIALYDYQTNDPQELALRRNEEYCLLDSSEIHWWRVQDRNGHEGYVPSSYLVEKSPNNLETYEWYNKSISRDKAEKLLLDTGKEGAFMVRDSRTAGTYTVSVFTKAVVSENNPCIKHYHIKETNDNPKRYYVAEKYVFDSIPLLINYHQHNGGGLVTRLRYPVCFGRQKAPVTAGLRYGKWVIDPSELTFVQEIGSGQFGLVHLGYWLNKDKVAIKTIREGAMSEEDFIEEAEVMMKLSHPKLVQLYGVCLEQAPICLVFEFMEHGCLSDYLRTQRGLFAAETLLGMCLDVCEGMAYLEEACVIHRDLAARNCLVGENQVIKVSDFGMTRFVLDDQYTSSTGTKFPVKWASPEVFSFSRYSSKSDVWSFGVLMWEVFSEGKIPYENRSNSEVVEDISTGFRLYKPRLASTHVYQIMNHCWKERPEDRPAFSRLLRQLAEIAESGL
In short: (§1)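 Radiometric format: recombinant tagged kinase (catalytic domain or whole protein, sometimes combined with regulatory polypeptides) phosphorylates immobilised poly(Glu,Tyr) 4:1 or poly(Arg,Ser) 3:1 using [33P]ATP. Wells are washed in 0.5% phosphoric acid, then counted. IC50 is taken where substrate labelling falls by half.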

Kdr = target: T2, Kdr (Homo sapiens, UniProt P35968); assay: Kinase inhibition assay (33P transfer), Kdr; conditions: for IC50: read-out: KDR-1
T2 construct: Kinases are expressed as either kinase domains or full length constructs; made in house
In short: (§2)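 Radiometric readout: 33P incorporated into surface-bound poly(Glu,Tyr) 4:1 or poly(Arg,Ser) 3:1 is counted by liquid scintillation after a 0.5% phosphoric acid wash. Enzymes were GST or polyHis fusions (kinase domain or full length) from E. coli or High Five insect cells.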

PDGFRB = target: T3, PDGFRB (Homo sapiens, UniProt P09619); assay: Kinase inhibition assay (33P transfer), PDGFRB; conditions: for IC50: read-out: PDGFRB-1
T3 construct: Kinases are expressed as either kinase domains or full length constructs; made in house

AKT = target: T4, AKT (Homo sapiens, UniProt Q9Y243); assay: Kinase inhibition assay (33P transfer), AKT; conditions: Table 2, kinase inhibition class; for IC50: read-out: AKT3-1
T4 construct: Kinases are expressed as either kinase domains or full length constructs; made in house
In short: as §2

ErbB2 = target: T5, ErbB2 (Homo sapiens, UniProt P04626); assay: Kinase inhibition assay (33P transfer), ErbB2; conditions: for IC50: read-out: ErbB2-2
T5 construct: Kinases are expressed as either kinase domains or full length constructs; made in house
In short: as §1

Tek = target: T6, Tek (Homo sapiens, UniProt Q02763); assay: Kinase inhibition assay (33P transfer), Tek; conditions: for IC50: read-out: Tek-1
T6 construct: Kinases are expressed as either kinase domains or full length constructs; made in house
In short: as §1

EGFR = target: T7, EGFR (Homo sapiens, UniProt P00533); assay: Kinase inhibition assay (33P transfer), EGFR; conditions: Table 2, kinase inhibition class; for IC50: read-out: EGFR-1
T7 construct: Kinases are expressed as either kinase domains or full length constructs; made in house
In short: as §1

c-Met = target: T8, c-Met (Homo sapiens, UniProt P08581); assay: Kinase inhibition assay (33P transfer), c-Met; conditions: Table 2, kinase inhibition class; for IC50: read-out: Met-1
T8 construct: Kinases are expressed as either kinase domains or full length constructs; made in house
In short: as §1

IGFR-1 = target: T9, IGFR-1 (Homo sapiens, UniProt P08069); assay: Kinase inhibition assay, IGFR-1 (Table 2); conditions: Table 2, kinase inhibition class
T9 construct: Kinases are expressed as either kinase domains or full length constructs; made in house

Lck = target: T10, Lck (Homo sapiens, UniProt P06239); assay: Kinase inhibition assay (33P transfer), Lck; conditions: for IC50: read-out: Lck-1
T10 construct: Kinases are expressed as either kinase domains or full length constructs; made in house
In short: as §2

Zap-70 = target: T11, Zap-70 (Homo sapiens, UniProt P43403); assay: Kinase inhibition assay (33P transfer), Zap-70; conditions: for IC50: read-out: Zap-1
T11 construct: Kinases are expressed as either kinase domains or full length constructs; made in house
T11 sequence (P43403 1-619): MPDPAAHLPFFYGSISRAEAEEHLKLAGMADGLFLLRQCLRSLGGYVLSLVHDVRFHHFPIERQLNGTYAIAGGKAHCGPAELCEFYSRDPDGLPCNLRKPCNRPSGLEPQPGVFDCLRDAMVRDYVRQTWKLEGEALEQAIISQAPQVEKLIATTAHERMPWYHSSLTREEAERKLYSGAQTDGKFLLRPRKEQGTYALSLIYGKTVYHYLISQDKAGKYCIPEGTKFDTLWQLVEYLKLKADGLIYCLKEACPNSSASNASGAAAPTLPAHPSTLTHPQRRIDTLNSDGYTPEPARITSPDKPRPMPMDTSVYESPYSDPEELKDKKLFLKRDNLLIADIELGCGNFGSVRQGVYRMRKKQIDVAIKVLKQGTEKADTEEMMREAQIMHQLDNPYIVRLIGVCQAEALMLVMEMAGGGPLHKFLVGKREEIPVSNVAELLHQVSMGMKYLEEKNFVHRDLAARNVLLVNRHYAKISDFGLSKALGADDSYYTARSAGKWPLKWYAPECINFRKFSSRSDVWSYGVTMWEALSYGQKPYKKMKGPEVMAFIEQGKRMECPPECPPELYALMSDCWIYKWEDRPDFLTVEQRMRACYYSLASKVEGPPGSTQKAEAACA
In short: as §2

T2 sequence (P35968 20-1356, species assumed): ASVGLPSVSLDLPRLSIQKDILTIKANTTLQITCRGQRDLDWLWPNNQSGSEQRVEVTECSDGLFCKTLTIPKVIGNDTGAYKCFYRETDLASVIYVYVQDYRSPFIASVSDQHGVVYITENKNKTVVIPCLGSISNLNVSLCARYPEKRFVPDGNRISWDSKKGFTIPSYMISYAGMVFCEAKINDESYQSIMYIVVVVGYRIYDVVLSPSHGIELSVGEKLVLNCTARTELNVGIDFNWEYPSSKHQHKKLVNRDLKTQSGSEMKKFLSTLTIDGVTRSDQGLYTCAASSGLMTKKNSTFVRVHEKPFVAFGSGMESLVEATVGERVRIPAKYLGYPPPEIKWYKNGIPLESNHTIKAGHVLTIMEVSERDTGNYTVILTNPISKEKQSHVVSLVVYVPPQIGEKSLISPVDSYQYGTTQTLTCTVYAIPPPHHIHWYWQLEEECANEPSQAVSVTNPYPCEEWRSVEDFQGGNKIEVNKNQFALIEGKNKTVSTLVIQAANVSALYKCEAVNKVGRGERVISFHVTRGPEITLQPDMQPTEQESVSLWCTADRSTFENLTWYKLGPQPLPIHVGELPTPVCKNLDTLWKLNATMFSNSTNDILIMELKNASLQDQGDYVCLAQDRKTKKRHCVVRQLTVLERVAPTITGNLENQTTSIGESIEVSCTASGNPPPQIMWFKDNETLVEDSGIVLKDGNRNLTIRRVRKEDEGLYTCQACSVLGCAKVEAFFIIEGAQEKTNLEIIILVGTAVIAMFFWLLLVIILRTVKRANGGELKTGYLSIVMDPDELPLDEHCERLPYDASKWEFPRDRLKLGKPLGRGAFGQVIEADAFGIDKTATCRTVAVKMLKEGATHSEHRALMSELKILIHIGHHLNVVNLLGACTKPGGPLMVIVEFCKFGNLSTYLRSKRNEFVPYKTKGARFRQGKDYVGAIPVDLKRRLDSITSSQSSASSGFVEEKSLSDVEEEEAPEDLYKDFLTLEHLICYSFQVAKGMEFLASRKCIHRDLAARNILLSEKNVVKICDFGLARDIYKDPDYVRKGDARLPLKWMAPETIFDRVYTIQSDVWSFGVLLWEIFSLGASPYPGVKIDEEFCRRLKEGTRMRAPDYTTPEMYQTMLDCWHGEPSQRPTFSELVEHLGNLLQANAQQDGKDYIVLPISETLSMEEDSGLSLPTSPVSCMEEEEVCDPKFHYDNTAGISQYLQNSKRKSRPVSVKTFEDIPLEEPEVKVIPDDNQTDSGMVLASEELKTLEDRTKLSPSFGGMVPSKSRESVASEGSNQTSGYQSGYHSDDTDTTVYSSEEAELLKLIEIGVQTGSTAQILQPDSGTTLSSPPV
T6 sequence (Q02763 23-1124, species assumed): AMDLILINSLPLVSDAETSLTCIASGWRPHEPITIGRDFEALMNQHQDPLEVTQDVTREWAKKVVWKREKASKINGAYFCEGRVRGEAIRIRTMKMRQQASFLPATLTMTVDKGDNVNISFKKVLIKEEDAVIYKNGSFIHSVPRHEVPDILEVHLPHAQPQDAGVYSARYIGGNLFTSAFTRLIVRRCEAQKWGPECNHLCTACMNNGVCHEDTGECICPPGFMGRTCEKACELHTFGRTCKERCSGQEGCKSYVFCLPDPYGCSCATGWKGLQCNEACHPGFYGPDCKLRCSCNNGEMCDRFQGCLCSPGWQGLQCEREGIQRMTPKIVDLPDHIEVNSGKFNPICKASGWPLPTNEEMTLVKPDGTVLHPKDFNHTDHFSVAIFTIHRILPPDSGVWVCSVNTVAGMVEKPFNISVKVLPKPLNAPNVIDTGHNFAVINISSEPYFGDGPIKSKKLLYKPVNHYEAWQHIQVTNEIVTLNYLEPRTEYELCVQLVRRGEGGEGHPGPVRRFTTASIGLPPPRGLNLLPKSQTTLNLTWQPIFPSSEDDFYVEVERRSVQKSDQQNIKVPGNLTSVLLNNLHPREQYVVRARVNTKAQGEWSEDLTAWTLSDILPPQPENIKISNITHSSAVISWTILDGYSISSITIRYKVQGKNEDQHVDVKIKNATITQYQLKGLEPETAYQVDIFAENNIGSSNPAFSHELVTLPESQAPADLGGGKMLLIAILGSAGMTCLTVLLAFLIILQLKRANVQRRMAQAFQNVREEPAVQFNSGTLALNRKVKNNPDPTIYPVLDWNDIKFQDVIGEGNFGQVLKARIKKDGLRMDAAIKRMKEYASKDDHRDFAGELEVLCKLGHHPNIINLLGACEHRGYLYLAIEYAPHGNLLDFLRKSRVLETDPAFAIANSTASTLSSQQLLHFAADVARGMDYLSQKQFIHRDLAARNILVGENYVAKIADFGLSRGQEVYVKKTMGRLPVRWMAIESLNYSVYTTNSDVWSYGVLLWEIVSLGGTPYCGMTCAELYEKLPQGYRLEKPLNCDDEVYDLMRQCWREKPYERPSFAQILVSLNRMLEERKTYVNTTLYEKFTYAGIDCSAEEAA
T3 sequence (P09619 33-1106, species assumed): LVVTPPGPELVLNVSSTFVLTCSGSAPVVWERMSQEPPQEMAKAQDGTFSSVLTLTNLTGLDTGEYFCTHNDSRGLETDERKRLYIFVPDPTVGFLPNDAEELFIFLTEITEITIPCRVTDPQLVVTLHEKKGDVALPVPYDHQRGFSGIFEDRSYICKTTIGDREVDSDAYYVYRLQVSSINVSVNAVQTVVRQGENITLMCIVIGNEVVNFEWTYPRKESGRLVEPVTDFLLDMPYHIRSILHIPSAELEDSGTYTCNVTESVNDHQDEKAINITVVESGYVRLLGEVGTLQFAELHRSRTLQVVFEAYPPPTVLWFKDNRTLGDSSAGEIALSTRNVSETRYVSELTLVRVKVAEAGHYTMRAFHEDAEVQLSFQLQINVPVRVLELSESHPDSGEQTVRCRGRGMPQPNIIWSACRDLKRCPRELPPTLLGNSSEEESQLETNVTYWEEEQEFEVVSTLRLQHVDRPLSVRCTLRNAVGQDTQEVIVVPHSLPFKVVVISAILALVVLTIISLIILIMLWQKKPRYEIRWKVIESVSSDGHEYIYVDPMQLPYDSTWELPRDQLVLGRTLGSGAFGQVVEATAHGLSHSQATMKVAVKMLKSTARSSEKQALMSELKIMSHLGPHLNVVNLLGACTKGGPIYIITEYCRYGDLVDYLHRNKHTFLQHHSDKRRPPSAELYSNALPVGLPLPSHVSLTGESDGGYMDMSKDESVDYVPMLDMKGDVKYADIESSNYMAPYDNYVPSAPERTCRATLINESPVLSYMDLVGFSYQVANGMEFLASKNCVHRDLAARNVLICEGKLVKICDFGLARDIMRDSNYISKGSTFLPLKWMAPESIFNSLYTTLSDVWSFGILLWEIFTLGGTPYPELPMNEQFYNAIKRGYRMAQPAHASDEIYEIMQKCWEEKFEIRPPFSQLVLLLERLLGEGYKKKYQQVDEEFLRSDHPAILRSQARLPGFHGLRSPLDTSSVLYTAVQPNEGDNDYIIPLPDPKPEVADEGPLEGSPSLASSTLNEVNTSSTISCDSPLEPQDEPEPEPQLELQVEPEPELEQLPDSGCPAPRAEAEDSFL
T4 sequence (Q9Y243 whole entry, the tested form may be a part): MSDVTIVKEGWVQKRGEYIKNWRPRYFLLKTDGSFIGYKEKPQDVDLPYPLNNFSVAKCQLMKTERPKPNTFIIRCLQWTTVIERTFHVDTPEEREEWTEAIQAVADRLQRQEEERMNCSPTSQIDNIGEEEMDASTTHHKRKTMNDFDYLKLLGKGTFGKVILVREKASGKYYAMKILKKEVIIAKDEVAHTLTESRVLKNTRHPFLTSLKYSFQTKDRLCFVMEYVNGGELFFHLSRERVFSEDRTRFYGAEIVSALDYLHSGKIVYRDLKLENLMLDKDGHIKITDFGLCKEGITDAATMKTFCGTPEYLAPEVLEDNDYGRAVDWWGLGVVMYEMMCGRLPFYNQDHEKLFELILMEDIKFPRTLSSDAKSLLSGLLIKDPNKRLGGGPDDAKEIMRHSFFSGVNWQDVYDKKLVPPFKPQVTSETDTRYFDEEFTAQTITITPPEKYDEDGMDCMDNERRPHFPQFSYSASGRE
T10 sequence (P06239 whole entry, species assumed, the tested form may be a part): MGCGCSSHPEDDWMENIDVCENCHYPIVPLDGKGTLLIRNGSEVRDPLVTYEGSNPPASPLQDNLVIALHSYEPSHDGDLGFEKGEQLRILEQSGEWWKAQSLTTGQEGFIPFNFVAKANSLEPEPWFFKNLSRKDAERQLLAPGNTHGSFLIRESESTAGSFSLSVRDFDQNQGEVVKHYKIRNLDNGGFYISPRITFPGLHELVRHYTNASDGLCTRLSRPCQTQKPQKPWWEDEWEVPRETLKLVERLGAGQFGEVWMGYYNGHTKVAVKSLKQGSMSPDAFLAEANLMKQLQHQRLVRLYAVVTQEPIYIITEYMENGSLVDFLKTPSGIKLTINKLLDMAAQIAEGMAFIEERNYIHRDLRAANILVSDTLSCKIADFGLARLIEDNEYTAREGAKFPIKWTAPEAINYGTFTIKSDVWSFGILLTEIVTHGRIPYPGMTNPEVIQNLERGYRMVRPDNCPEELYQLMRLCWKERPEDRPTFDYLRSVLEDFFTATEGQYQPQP

SMILES	IC50 (Itk)	IC50 (Kdr)	IC50 (PDGFRB)	IC50 (AKT)	IC50 (ErbB2)	IC50 (Tek)	IC50 (EGFR)	IC50 (c-Met)	IC50 (IGFR-1)	IC50 (Lck)	IC50 (Zap-70)	other results
COc1cc(Nc2ncnc(Nc3ccc(O)c4ncccc34)n2)cc(OC)c1OC [Compound 699]	–	–	–	–	–	–	–	–	–	–	–	Itk-1 (Itk): B (B>0.4 and <2.4 ug/mL); KDR-1 (Kdr): B (B>0.4 and <2.4 ug/mL); PDGFRB-1 (PDGFRB): A (A<0.4 ug/mL); AKT3-1 (AKT): E (E>4.5 ug/mL); ErbB2-2 (ErbB2): A (A<0.4 ug/mL); Tek-1 (Tek): D (D>3.5 and <4.5 ug/mL); EGFR-1 (EGFR): B (B>0.4 and <2.4 ug/mL); Met-1 (c-Met): E (E>4.5 ug/mL); IGFR-1 (IGFR-1): B (B>0.4 and <2.4 ug/mL); Lck-1 (Lck): A (A<0.4 ug/mL); Zap-1 (Zap-70): E (E>4.5 ug/mL)
COc1ccc(CNc2ncccc2-c2ncnc(Nc3cc(OC)c(OC)c(OC)c3)n2)nc1 [Compound 1085]	> 9.46 µM	< 0.841 µM	0.841 to 5.05 µM	> 9.46 µM	> 9.46 µM	> 9.46 µM	> 9.46 µM	> 9.46 µM	> 9.46 µM	0.841 to 5.05 µM	> 9.46 µM	–
COc1cc(Nc2ncnc(Nc3cccc(C(C)=O)c3)n2)cc(OC)c1OC [Compound 697]	> 11.4 µM	1.01 to 6.07 µM	< 1.01 µM	> 11.4 µM	1.01 to 6.07 µM	8.85 to 11.4 µM	1.01 to 6.07 µM	> 11.4 µM	1.01 to 6.07 µM	< 1.01 µM	> 11.4 µM	–
COc1cc(Nc2ncnc(Nc3cc(-c4ccc(C(=O)O)cc4)n[nH]3)n2)cc(OC)c1OC [Compound 1004]	7.55 to 9.71 µM	0.863 to 5.18 µM	0.863 to 5.18 µM	> 9.71 µM	0.863 to 5.18 µM	0.863 to 5.18 µM	0.863 to 5.18 µM	< 0.863 µM	< 0.863 µM	< 0.863 µM	> 9.71 µM	–
CCN(CC)C(=O)C1CCCN(c2ncnc(Nc3cc(OC)c(OC)c(OC)c3)n2)C1 (centres unmarked) [Compound 615]	7.87 to 10.1 µM	> 10.1 µM	> 10.1 µM	> 10.1 µM	> 10.1 µM	> 10.1 µM	> 10.1 µM	> 10.1 µM	> 10.1 µM	7.87 to 10.1 µM	> 10.1 µM	–
NC(=O)c1ccc(Nc2ncnc(-c3cccnc3NCc3cccs3)n2)cc1 [Compound 1083]	8.67 to 11.2 µM	< 0.991 µM	0.991 to 5.95 µM	> 11.2 µM	> 11.2 µM	0.991 to 5.95 µM	0.991 to 5.95 µM	> 11.2 µM	> 11.2 µM	0.991 to 5.95 µM	> 11.2 µM	–
CCc1ccc(Nc2ncnc(-n3c(N)nc4ccccc43)n2)cc1 [Compound 657]	7.24 to 10.6 µM	1.21 to 7.24 µM	7.24 to 10.6 µM	7.24 to 10.6 µM	1.21 to 7.24 µM	1.21 to 7.24 µM	1.21 to 7.24 µM	7.24 to 10.6 µM	1.21 to 7.24 µM	7.24 to 10.6 µM	1.21 to 7.24 µM	–
COc1cc(Nc2ncnc(-n3c(C)nc4ccccc43)n2)cc(OC)c1OC [Compound 691]	6.12 to 8.92 µM	< 1.02 µM	< 1.02 µM	> 11.5 µM	> 11.5 µM	> 11.5 µM	6.12 to 8.92 µM	1.02 to 6.12 µM	< 1.02 µM	1.02 to 6.12 µM	> 11.5 µM	–
Nc1nc2ccccc2n1-c1ncnc(Nc2cccnc2)n1 [Compound 658]	1.31 to 7.89 µM	1.31 to 7.89 µM	> 14.8 µM	> 14.8 µM	> 14.8 µM	> 14.8 µM	7.89 to 11.5 µM	> 14.8 µM	< 1.31 µM	> 14.8 µM	> 14.8 µM	–
COc1cc(Nc2ncnc(Nc3ccc(NS(=O)(=O)c4ccc([N+](=O)[O-])cc4)cc3)n2)cc(OC)c1OC [Compound 692]	0.723 to 4.34 µM	< 0.723 µM	< 0.723 µM	> 8.13 µM	< 0.723 µM	0.723 to 4.34 µM	0.723 to 4.34 µM	4.34 to 6.32 µM	0.723 to 4.34 µM	< 0.723 µM	0.723 to 4.34 µM	–
COc1ccc(Nc2ncnc(Nc3cc(-c4ccccc4)n[nH]3)n2)cc1OC [Compound 977]	> 11.6 µM	< 1.03 µM	> 11.6 µM	> 11.6 µM	1.03 to 6.16 µM	> 11.6 µM	1.03 to 6.16 µM	< 1.03 µM	< 1.03 µM	< 1.03 µM	> 11.6 µM	–
COc1cc(Nc2ncnc(-n3ncc(-c4ccccc4)c3N)n2)cc(OC)c1OC [Compound 522]	0.954 to 5.72 µM	5.72 to 8.34 µM	5.72 to 8.34 µM	> 10.7 µM	8.34 to 10.7 µM	8.34 to 10.7 µM	5.72 to 8.34 µM	5.72 to 8.34 µM	0.954 to 5.72 µM	0.954 to 5.72 µM	> 10.7 µM	–
COc1cc(Nc2ncnc(Nc3cccc(C(F)(F)F)c3)n2)cc(OC)c1OC [Compound 614]	> 10.7 µM	8.31 to 10.7 µM	0.949 to 5.7 µM	> 10.7 µM	0.949 to 5.7 µM	8.31 to 10.7 µM	< 0.949 µM	> 10.7 µM	< 0.949 µM	0.949 to 5.7 µM	> 10.7 µM	–

Reference: US7074789B2, “Kinase inhibitors” (Amgen Inc., priority 1999, dated 2006)
